Laboratory results published in the NIST ThermoML archive (doi:10.1021/acs.jced.6b00552).
Numbers after ± are expanded uncertainties.

Tests used:
[1] = Molar enthalpy of transition or fusion; conditions: Crystal; DSC
[2] = Crystal; DSC

Structure (SMILES): O=C(CCc1ccc(O)cc1)c1c(O)cc(O)cc1O [3-(4-hydroxyphenyl)-1-(2,4,6-trihydroxyphenyl)propan-1-one]
- Molar enthalpy of transition or fusion [1]: 13.5 ± 0.837 kcal/mol
- Triple point temperature [2]: 542.96 ± 1.2 K

Structure (SMILES): C[C@@H]1O[C@@H](O[C@H]2[C@H](Oc3cc(O)c(C(=O)CCc4ccc(O)cc4)c(O)c3)O[C@H](CO)[C@@H](O)[C@@H]2O)[C@H](O)[C@H](O)[C@H]1O [naringin dihydrochalcone]
- Molar enthalpy of transition or fusion [1]: 7.08 ± 0.454 kcal/mol
- Triple point temperature [2]: 432.22 ± 1.2 K
